Laboratory results taken from patent US20040126792A1, “Synthesis and applications of trinucleotide pCpCpA-3'-NH-aminoacyl derivatives” (priority 2002, published 2004).

Tests used:
[1] = tested on: 70S ribosome peptidyltransferase; assay: Peptidyltransferase activity assay in the presence of antibiotics, 70S ribosome; details: 100 μM antibiotic; 70S versus 50S
Method: (§1) Assay reactions were carried out with: 50S or 70S subunits from the bacterial ribosome (prepared from E. coli MRE600), or S30 extract (purchased from Promega); 50 μM CCA-Met-Biotin or tRNA-Met-Biotin; trace amounts of ^32P-CCA-NH-Phe (˜0.5 nM); 100 μM antibiotic in the presence of 50 mM Tris•HCl (pH 7.5); 35 mM MgCl2; 100 mM NH4Cl; and 1000 mM KCl, at 37° C. For each reaction, the same amount of 50S or 70S (10 pmol) was included, but the S30 concentration was not determined.
(§2) Reactions were initiated by addition of ^32P-CCA-NH-Phe. A 1-μL aliquot of the reaction mixture was removed at specific time points, quenched with 2 μL quench buffer (formamide +0.05% xylene cyanol), and loaded on 24%/7.5 M urea polyacrylamide denaturing gel.
(§3) The substrates used in these reactions were CCA-Met-Biotin and ^32P-CCA-NH-Phe. The lower band corresponds to the labeled ^32P-CCA-NH-Phe and the top band is the dipeptide product (^32P-CCA-NH-Phe-Met-Biotin).
(§4) Reaction conditions for these studies were the same as described above.

[2] = tested on: S30 extract peptidyltransferase; assay: Peptidyltransferase gel-shift assay in the presence of antibiotics, S30 extract; format: biochemical, E. coli; details: 100 μM antibiotic, substrates CCA-Met-Biotin and 32P-CCA-NH-Phe, 37° C.
Method: as §1, §2, §3

[3] = tested on: 50S ribosome peptidyltransferase; assay: Peptidyltransferase activity assay in the presence of antibiotics, 50S ribosome; details: 100 μM antibiotic, tRNA-Met-Biotin versus CCA-Met-Biotin substrate
Method: as §1
Reactions were initiated by addition of ^32P-CCA-NH-Phe. A 1-μL aliquot of the reaction mixture was removed at specific time points, quenched with 2 μL quench buffer (formamide +0.05% xylene cyanol), and loaded on 24%/7.5 M urea polyacrylamide denaturing gel. Reaction products were quantitated with a Molecular Dynamics PhosphorImager™, and the fraction of individual product relative to total reactants was plotted against time (see FIGS. 11-14).
as §4

SMILES | Inhibition of 70S reactions compared with 50S reactions [1] | Inhibition of peptidyltransferase activity (gel-shift, FIG. 10A) [2] | Effect on activity of 50S-tRNA compared with 50S-CCA [3]
COc1ccc(C[C@H](N)C(=O)N[C@H]2[C@@H](O)[C@H](n3cnc4c(N(C)C)ncnc43)O[C@@H]2CO)cc1 [puromycin] | much more strongly than 50S reactions | does not significantly inhibit | 
CC[C@H]1OC(=O)[C@H](C)[C@@H](O[C@H]2C[C@@](C)(OC)[C@@H](O)[C@H](C)O2)[C@H](C)[C@@H](O[C@@H]2O[C@H](C)C[C@H](N(C)C)[C@H]2O)[C@](C)(O)C[C@@H](C)C(=O)[C@H](C)[C@@H](O)[C@]1(C)O [erythromycin] | much more strongly than 50S reactions | greatly inhibited | 
CSC[S@+]([O-])C[C@H](CO)NC(=O)/C=C/c1c(C)[nH]c(=O)[nH]c1=O [sparsomycin] |  | greatly inhibited | much less unaffected than that of 50S-CCA
[H]/N=C(/N)N[C@H]1[C@H](O)[C@@H](O)[C@H](O[C@@H]2O[C@@H](C)[C@](O)(C=O)[C@H]2O[C@@H]2O[C@@H](CO)[C@H](O)[C@@H](O)[C@@H]2NC)[C@@H](N/C(N)=N\[H])[C@@H]1O [streptomycin] |  | not inhibited | 
O=C(N[C@H](CO)[C@H](O)c1ccc([N+](=O)[O-])cc1)C(Cl)Cl [chloramphenicol] |  | greatly inhibited | 
